Here are results for 22 molecules from ChEMBL document CHEMBL4052659, “Synthesis, molecular docking, and biological activity of polyfluoroalkyl dihydroazolo[5,1-c][1,2,4]triazines as selective carboxylesterase inhibitors” (Bioorg Med Chem, 2017).

Series [1] concerns the target Acetylcholinesterase (Homo sapiens) (UniProt P22303). In words: Inhibition of human erythrocyte acetylcholinesterase at 20 uM using acetylthiocholine iodide as substrate preincubated for 10 mins followed by substrate addition by Ellman's method relative to control. (In general: In Ellman's method for cholinesterases, released thiocholine reacts with DTNB.)
Series [2] has as its target Cholinesterase (Equus caballus) (UniProt P81908). Description: Inhibition of equine serum butyrylcholinesterase at 20 uM using butyrylthiocholine iodide as substrate preincubated for 10 mins followed by substrate addition by Ellman's method relative to control.
Series [3] concerns the target T1, Liver carboxylesterase (Sus scrofa, UniProt Q29550).
T1 sequence (Q29550 whole entry): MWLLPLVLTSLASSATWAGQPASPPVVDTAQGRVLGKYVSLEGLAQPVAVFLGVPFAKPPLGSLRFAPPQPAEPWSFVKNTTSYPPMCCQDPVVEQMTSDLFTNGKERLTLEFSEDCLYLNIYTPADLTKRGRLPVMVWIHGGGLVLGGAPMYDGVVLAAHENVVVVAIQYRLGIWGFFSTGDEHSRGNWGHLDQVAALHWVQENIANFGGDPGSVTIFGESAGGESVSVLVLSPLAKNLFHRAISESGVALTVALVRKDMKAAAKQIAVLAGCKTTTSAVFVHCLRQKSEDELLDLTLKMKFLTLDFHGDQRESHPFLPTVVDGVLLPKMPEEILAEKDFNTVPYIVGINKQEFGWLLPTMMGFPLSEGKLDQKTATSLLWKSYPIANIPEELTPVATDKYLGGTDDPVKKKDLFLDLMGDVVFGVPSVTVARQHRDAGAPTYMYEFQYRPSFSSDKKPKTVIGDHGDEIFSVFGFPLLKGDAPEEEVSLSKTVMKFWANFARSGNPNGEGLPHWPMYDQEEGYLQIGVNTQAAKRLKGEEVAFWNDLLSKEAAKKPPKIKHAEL
In words: Competitive inhibition of porcine liver carboxylesterase using varying levels of 4-nitrophenol acetate as substrate preincubated for 10 mins followed by substrate addition by Lineweaver-Burk plot analysis.

The target of series [4] is T1, Liver carboxylesterase. Description: Non-competitive inhibition of porcine liver carboxylesterase using varying levels of 4-nitrophenol acetate as substrate preincubated for 10 mins followed by substrate addition by Lineweaver-Burk plot analysis. Conditions: pig.
Series [5] addresses T1, Liver carboxylesterase. In words: Reversible mixed-type inhibition of porcine liver carboxylesterase at 0.1 to 0.6 uM using varying levels of 4-nitrophenol acetate as substrate preincubated for 10 mins followed by substrate addition by Lineweaver-Burk double-reciprocal plot analysis. As to conditions: pig.
Series [6] can be described thus: Acute toxicity in CD-1 mouse assessed as mouse survival up to 300 mg/kg, ip measured for 14 days. The series is classed as organism-based. Conditions: in vivo.
The target in series [7] is T1, Liver carboxylesterase.
Description: Inhibition of porcine liver carboxylesterase using 4-nitrophenol acetate as substrate preincubated for 10 mins followed by substrate addition by spectrophotometric analysis
Series [8] deals with T1, Liver carboxylesterase. In words: Reversible mixed-type inhibition of porcine liver carboxylesterase at 0.5 to 2 uM using varying levels of 4-nitrophenol acetate as substrate preincubated for 10 mins followed by substrate addition by Lineweaver-Burk double-reciprocal plot analysis. As to conditions: pig.
For series [9], the target named is T1, Liver carboxylesterase. Description: in vitro. As to conditions: pig, porcine liver carboxylesterase, probe 4-nitrophenol acetate.
Description: Inhibition of porcine liver carboxylesterase at 20 uM using 4-nitrophenol acetate as substrate preincubated for 10 mins followed by substrate addition by spectrophotometric analysis relative to control
The target of series [10] is T1, Liver carboxylesterase. In words: Reversible mixed-type inhibition of porcine liver carboxylesterase at 5 to 20 uM using varying levels of 4-nitrophenol acetate as substrate preincubated for 10 mins followed by substrate addition by Lineweaver-Burk double-reciprocal plot analysis. Conditions: pig.

The source made the active and inactive calls. The calls are words filed in the database; no cut-off is given here.

Sequence of Acetylcholinesterase (Homo sapiens) (P22303 whole entry): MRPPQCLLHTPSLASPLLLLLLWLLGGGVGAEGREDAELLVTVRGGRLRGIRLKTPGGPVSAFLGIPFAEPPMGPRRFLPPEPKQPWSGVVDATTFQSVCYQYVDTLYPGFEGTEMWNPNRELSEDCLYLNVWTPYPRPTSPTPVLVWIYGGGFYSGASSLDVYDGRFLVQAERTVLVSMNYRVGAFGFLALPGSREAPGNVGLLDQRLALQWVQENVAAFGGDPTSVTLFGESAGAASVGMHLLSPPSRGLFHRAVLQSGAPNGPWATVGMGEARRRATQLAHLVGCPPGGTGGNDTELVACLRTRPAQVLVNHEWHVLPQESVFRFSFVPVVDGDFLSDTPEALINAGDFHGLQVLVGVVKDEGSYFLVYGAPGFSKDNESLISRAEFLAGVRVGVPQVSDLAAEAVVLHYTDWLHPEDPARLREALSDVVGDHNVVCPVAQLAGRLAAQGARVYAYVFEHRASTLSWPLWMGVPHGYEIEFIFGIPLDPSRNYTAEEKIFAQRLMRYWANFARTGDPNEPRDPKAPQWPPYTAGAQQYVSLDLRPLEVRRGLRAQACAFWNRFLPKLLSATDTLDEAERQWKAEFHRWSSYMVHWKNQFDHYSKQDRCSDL
Sequence of Cholinesterase (Equus caballus) (P81908 whole entry): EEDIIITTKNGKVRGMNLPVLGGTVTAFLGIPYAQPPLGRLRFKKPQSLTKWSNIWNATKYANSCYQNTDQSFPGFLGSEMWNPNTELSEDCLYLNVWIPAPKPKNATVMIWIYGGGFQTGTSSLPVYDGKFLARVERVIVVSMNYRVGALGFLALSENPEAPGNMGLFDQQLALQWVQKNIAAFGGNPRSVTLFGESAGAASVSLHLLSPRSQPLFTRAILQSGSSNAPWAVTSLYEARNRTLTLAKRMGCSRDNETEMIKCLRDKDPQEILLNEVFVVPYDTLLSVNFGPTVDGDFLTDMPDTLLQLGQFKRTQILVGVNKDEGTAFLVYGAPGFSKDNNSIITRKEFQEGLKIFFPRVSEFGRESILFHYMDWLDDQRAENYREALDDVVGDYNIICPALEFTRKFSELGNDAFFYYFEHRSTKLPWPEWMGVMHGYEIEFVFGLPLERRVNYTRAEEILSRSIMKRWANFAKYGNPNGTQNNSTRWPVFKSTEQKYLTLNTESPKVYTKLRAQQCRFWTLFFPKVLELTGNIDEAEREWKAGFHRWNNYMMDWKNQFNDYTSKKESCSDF

As usually defined, the inhibition is the share of the control response that was lost under treatment. Broadly, the Ki is a measure of affinity in units of concentration, obtained from inhibition or displacement. A higher Ki goes with lower affinity. By IC50 is commonly meant the concentration that gives 50% inhibition. Read a high IC50 as lower potency. On to `CCOC(=O)C1=NNc2cc(-c3ccccc3)nn2C1(O)C(F)(F)C(F)(F)C(F)(F)C(F)(F)F` (stereo not drawn), for which, in series [1], the inhibition result was “inactive”. Also, the inhibition in [2] amounted to 16.2%. Moreover, affinity on Liver carboxylesterase [3] was put at a Ki of 0.23 µM. Further, the alphaKi on Liver carboxylesterase [4] is 0.69 µM. Further, the “inhibition (INH)” value against Liver carboxylesterase [5] was “Active”. Besides, in [6], the survival at 336 h came to 100%. On Liver carboxylesterase [7], this molecule yielded an IC50 of 0.46 µM.
On to `O=[N+]([O-])c1ccc(OP(=O)(O)Oc2ccc([N+](=O)[O-])cc2)cc1`, for which the inhibition entry in series [1] and in series [2] was “inactive” each time. Moreover, at Liver carboxylesterase [7], the IC50 came out at 1.8 µM.
Turning to `COC(=O)C1=NNc2nnnn2C1(O)C(F)(F)F` (stereo not drawn), in series [1], the inhibition entry is “inactive”. In [2], this molecule returned an inhibition of 4.1%. The molecule also displayed an IC50 against Liver carboxylesterase [7] of 58.6 µM.
As to `COC(=O)C1=NNc2cc(-c3ccccc3)nn2C1(O)C(F)(F)C(F)(F)C(F)(F)C(F)(F)F` (stereo not drawn), the inhibition in [1] was 11.7%; in series [2], 11.6%. Besides, at Liver carboxylesterase [3], the Ki turned out to be 0.7 µM. On Liver carboxylesterase [4], the alphaKi is 1.6 µM. Also, on Liver carboxylesterase [7], the IC50 is 0.96 µM.
Regarding `CCOC(=O)C1=NNc2cc(-c3ccccc3)nn2C1(O)C(F)(F)C(F)(F)F` (stereo not drawn), the inhibition in series [1] turned out to be 13.6%; in series [2], 22%. Also, the Ki on Liver carboxylesterase [3] was found to be 1.61 µM. The molecule further came in with an alphaKi at Liver carboxylesterase [4] of 3.52 µM. Also, the survival at 336 h in series [6] came out at 100%. This molecule also had an IC50 against Liver carboxylesterase [7] of 3.91 µM.
Take `O=C(C1=NNc2nnnn2C1(O)C(F)(F)F)c1ccccc1` (stereo not drawn): the inhibition result in [1] and in series [2] was “inactive” each time. In addition, half-maximal inhibition at Liver carboxylesterase [7] (IC50) was put at 17.2 µM.
Take `CCOC(=O)C1=NNc2ncnn2C1(O)C(F)(F)C(F)(F)C(F)(F)C(F)(F)F` (stereo not drawn): in [1], the inhibition result was “inactive”. The inhibition in [2] was 3.7%. This molecule also yielded an IC50 on Liver carboxylesterase [7] of 0.98 µM.
For the molecule `CCOC(=O)C1=NNc2nnnn2C1(O)C(F)(F)C(F)(F)C(F)(F)C(F)(F)F` (stereo not drawn), the inhibition result in series [1] and in [2] was “inactive” each time. Also, inhibition against Liver carboxylesterase [7] was half-maximal at 0.83 µM (IC50).
As for `COC(=O)C1=NNc2nnnn2C1(O)C(F)(F)C(F)(F)C(F)(F)F` (stereo not drawn), the inhibition entry in series [1] and in [2] was “inactive” in each case. Half-maximal inhibition at Liver carboxylesterase [7] (IC50) required 3.29 µM.
As to `CCOC(=O)c1cnn2c1NN=C(C(=O)OC)C2(O)C(F)(F)C(F)(F)C(F)(F)F` (stereo not drawn), the inhibition result in [1] and in series [2] was “inactive” each time. Besides, the IC50 at Liver carboxylesterase [7] is 38.2 µM.
With `CCOC(=O)C1=NNc2nnnn2C1(O)C(F)(F)F` (stereo not drawn), the inhibition entry in series [1] and in series [2] was “inactive” throughout. On Liver carboxylesterase [7], this molecule showed an IC50 of 13.6 µM.
In series [1], `CCOC(=O)C1=NNc2cc(-c3ccccc3)nn2C1(O)C(F)(F)F` (stereo not drawn) yielded an inhibition of 3.8%. Also, the inhibition result in series [2] is “inactive”. For the same molecule, inhibition on Liver carboxylesterase [7] was half-maximal at 16.4 µM (IC50).
For `CCOC(=O)C1=NNc2cc(C)nn2C1(O)C(F)(F)F` (stereo not drawn), in that order: “inactive”, 7.3% and 48.3 µM.
As to `CCOC(=O)C1=NNc2cc(C)nn2C1(O)C(F)(F)C(F)(F)C(F)(F)C(F)(F)F` (stereo not drawn), the inhibition in series [1] came to 3%; in [2], 6%. For the same molecule, the survival at 336 h in series [6] was 100%. 1.44 µM corresponded to half-maximal inhibition against Liver carboxylesterase [7] (IC50).
Turning to `COC(=O)C1=NNc2nnnn2C1(O)C(F)(F)C(F)(F)C(F)(F)C(F)(F)F` (stereo not drawn), the inhibition result in series [1] and in [2] was “inactive” in each case. Besides, at Liver carboxylesterase [3], the Ki came to 0.57 µM. Further, the alphaKi at Liver carboxylesterase [4] amounted to 1.74 µM. The survival at 336 h in [6] came out at 100%. The “inhibition (INH)” value against Liver carboxylesterase [8] is reported as “Active”. At Liver carboxylesterase [7], this molecule returned an IC50 of 1.31 µM.
Consider `CCOC(=O)c1nnc(N)nc1C(F)(F)F`, for which the inhibition result in series [1] and in series [2] was “inactive” each time. The molecule further yielded an IC50 at Liver carboxylesterase [7] of 3.9 µM.
In the case of `COC(=O)C1=NNc2nnnn2C1(O)C(F)(F)C(F)F` (stereo not drawn), the inhibition entry in series [1] and in series [2] was “inactive” each time. On Liver carboxylesterase [7], this molecule displayed an IC50 of 12.3 µM.
`CCOC(=O)C1=NNc2c(C(=O)OCC)cnn2C1(O)C(F)(F)F` (stereo not drawn): in [1], the inhibition entry was “inactive”. This molecule also yielded an inhibition in series [2] of 8.5%. Besides, at Liver carboxylesterase [9], the inhibition at 20 µM was determined as 9.3%.
With `O=C(C1=NNc2ncnn2C1(O)C(F)(F)C(F)(F)C(F)(F)F)c1ccccc1` (stereo not drawn), the inhibition result in series [1] and in series [2] was “inactive” throughout. The half-inhibitory concentration (IC50) at Liver carboxylesterase [7] stood at 53.4 µM.
As for `CCOC(=O)C1=NNc2ncnn2C1(O)C(F)(F)F` (stereo not drawn), the inhibition entry in series [1] and in series [2] was “inactive” throughout. On Liver carboxylesterase [7], this molecule came in with an IC50 of 3.6 µM.
`CCOC(=O)C1=NNc2c(C(=O)OCC)ncn2C1(O)C(F)(F)F` (stereo not drawn): the inhibition entry in series [1] and in [2] was “inactive” each time. This molecule displayed an IC50 at Liver carboxylesterase [7] of 34.4 µM.
Consider `COC(=O)C1=NNc2ncnn2C1(O)C(F)(F)C(F)(F)C(F)(F)C(F)(F)F` (stereo not drawn), for which the inhibition entry in [1] and in [2] was “inactive” throughout. The molecule further registered a Ki on Liver carboxylesterase [3] of 6.51 µM. The same molecule showed an alphaKi on Liver carboxylesterase [4] of 23.4 µM. Further, the “inhibition (INH)” value against Liver carboxylesterase [10] was “Active”. Besides, the IC50 on Liver carboxylesterase [7] turned out to be 10.7 µM.
